Tested on: malondialdehyde (MDA)
Test: Malondialdehyde level, metabolic syndrome subjects
Format: in vivo, human
Settings: for MDA: MS, 400 mcg; for MDA Post Tt / Mean percentage change in MDA / MDA Pre Tt: metabolic syndrome subjects (Example 4), chromium products 400 mcg; for MDA Post Tt: after 12 weeks of treatment; for Mean percentage change in MDA: after 12 weeks treatment; for MDA Pre Tt: pre-treatment
Method: Nitric oxide, MDA, Glutathione and levels were estimated spectrophotometrically as follows. Malondialdehyde (MDA) levels were determined as described in Vidyasagar, et al., “Oxidative stress and antioxidant status in acute organophosphorous insecticide poisoning,” Indian J. Pharmacol. (April 2004) 36(2): 76-79. Glutathione levels were determined as described in G. L. Ellman, Arch. Biochem. Biophys. (1959) 82: 70-77 (original determination). Nitric oxide levels were estimated spectrophotometrically as described in Miranda, et al., “A Rapid, Simple Spectrophotometric Method for Simultaneous Detection of Nitrate and Nitrite,” NITRIC OXIDE: Biology and Chemistry (2001) Vol. 5, No. 1, pp. 62-71. hsCRP (high sensitivity C-reactive protein) was determined by ELISA method.
Patients included in the study, were of either gender, aged 30-68 years, having endothelial dysfunction defined as ≤6% change in reflection index (RI) on post salbutamol challenge test and central obesity as defined by The International Diabetes Federation guidelines, dated 2006, and any two of the following conditions:
After screening, all the eligible subjects were randomized to receive either one of the three treatments orally for duration of 12 weeks: group 1—one capsule of Crominex®3+ 200 mcg once daily; group 2—one capsule 400 mcg once daily; group 3—one capsule of Placebo once daily.
Subjects were reviewed for follow up at 4 weeks, 8 and 12 weeks of therapy. At each visit they were evaluated for efficacy and safety. Pharmacodynamic evaluation for endothelial function was conducted at baseline and end of treatment. Blood samples were collected for evaluation of biomarkers before and at end of treatment. Safety lab investigations for hematological, hepatic and renal biochemical parameters were conducted before and at the end of the study and also as and when required (in case of any adverse drug reaction (ADR)). Subjects were enquired for the presence of ADR and the same was recorded in the case report form. Compliance to therapy was assessed by pill count method.
Assessment of endothelial function, biomarkers, safety parameters and primary and secondary efficacy parameters and data analysis were performed as described under the study with type 2 diabetic subjects in Example 1.
When the results with Crominex® 3+ in the above two examples were highly significant, especially with the 400 mcg once daily dose in type 2 diabetics, two more clinical studies (EXAMPLES 3 & 4) were conducted at the same institute, following the same methodology as described earlier, on the individual components of Crominex® 3+, i.e., chromium chloride and Phyllanthus emblica+Shilajit, and other chromium supplements available in the market, i.e., chromium picolinate, chromium polynicotinate and chromium dinicocysteinate, in type 2 diabetics as well as in subjects with metabolic syndrome symptoms.

| Compound | MDA [%] | MDA Post Tt [nM/ml] | Mean percentage change in MDA [%] | MDA Pre Tt [nM/ml] |
| --- | --- | --- | --- | --- |
| O.O.O.O.O.O.[Cl][Cr]([Cl])[Cl] [Chromium chloride, Chromium chloride (CrCl3.6H2O)] | −4.65 | 3.76 ± 0.42 | −4.65 ± 1.95 | 3.94 ± 0.42 |
| chromium picolinate | −7.1 | 3.60 ± 0.46 | −7.14 ± 1.70 | 3.87 ± 0.47 |
| chromium dinicocysteinate | −6.7 | 3.74 ± 0.42 | −6.67 ± 1.47 | 4.00 ± 0.42 |
| chromium polynicotinate | −5.4 | 3.83 ± 0.41 | −5.38 ± 1.31 | 4.04 ± 0.40 |

— US10183047B2, “Chromium-containing compositions in combination with Phyllanthus emblica and shilajit having synergistic effects for improving endothelial function and cardiovascular health” (Natreon, Inc., priority 2014, dated 2019)
